Assay results from patent publication US20170121319A1, “Herbicidal Compounds” (Syngenta Participations AG, priority 2014, published 2017).

Columns and labels:
Assay type in all cases: in vivo
Design in all cases: key: 5=total damage to plant; 0=no damage to plant
[1] = tested on: SETFA = Setaria faberi; assay: Pre-emergence herbicidal activity, glasshouse pot test
Procedure: (§1) Seeds of a variety of test species were sown in standard soil in pots. After cultivation for one day (pre-emergence) under controlled conditions in a glasshouse (at 24/16° C., day/night; 14 hours light; 65% humidity), the plants were sprayed with an aqueous spray solution derived from the formulation of the technical active ingredient in acetone/water (50:50) solution containing 0.5% Tween 20 (polyoxyethelyene sorbitan monolaurate, CAS RN 9005-64-5). The test plants were then grown in a glasshouse under controlled conditions (at 24/16° C., day/night; 14 hours light; 65% humidity) and watered twice daily. After 13 days, the test was evaluated (5=total damage to plant; 0=no damage to plant). Pre- and post-emergence testing was carried out as detailed above on the compounds A1, A2, A4 and A5 and their respective S-enantiomers.

[2] = tested on: ZEAMX = Zea mays; assay: as above
Procedure: as §1

[3] = tested on: AMARE = Amaranthus retroflexus; assay: as above
Procedure: as §1

[4] = tested on: ECHCG = Echinochloa crus-galli; assay: as above
Procedure: as §1

[5] = tested on: LOLPE; assay: as above
Procedure: as §1

[6] = tested on: ABUTH = Abutilon theophrasti; assay: as above
Procedure: as §1

[7] = tested on: SETFA = Setaria faberi; assay: Post-emergence herbicidal activity, glasshouse pot test; settings: for SEFTA damage score (0-5): comparison of enantiomers
Procedure: (§2) Seeds of a variety of test species were sown in standard soil in pots. After 8 days cultivation (post-emergence) under controlled conditions in a glasshouse (at 24/16° C., day/night; 14 hours light; 65% humidity), the plants were sprayed with an aqueous spray solution derived from the formulation of the technical active ingredient in acetone/water (50:50) solution containing 0.5% Tween 20 (polyoxyethelyene sorbitan monolaurate, CAS RN 9005-64-5). The test plants were then grown in a glasshouse under controlled conditions (at 24/16° C., day/night; 14 hours light; 65% humidity) and watered twice daily. After 13 days, the test was evaluated (5=total damage to plant; 0=no damage to plant). Pre- and post-emergence testing was carried out as detailed above on the compounds A1, A2, A4 and A5 and their respective S-enantiomers.

[8] = tested on: ZEAMX = Zea mays; assay: as above
Procedure: as §2

[9] = tested on: AMARE = Amaranthus retroflexus; assay: as above
Procedure: as §2

[10] = tested on: ECHCG = Echinochloa crus-galli; assay: as above
Procedure: as §2

[11] = tested on: LOLPE; assay: as above
Procedure: as §2

[12] = tested on: ABUTH = Abutilon theophrasti; assay: as above
Procedure: as §2

[13] = 1000 g/Ha, evaluated after 13 days
[14] = comparison of enantiomers, 250 g/Ha
[15] = comparison of enantiomers, 62.5 g/Ha

SMILES: COC[C@@H]1C(O)N(c2cc(C(C)(C)C)on2)C(=O)N1C (stereo partly drawn) [Example A4, (4R)-1-(5-tert-butylisoxazol-3-yl)-5-hydroxy-4-(methoxymethyl)-3-methyl-imidazolidin-2-one]
- SETFA damage score (0-5) [1, 13]: 4
- SEFTA damage score (0-5) [1, 14]: 5
- ZEAMX damage score (0-5) [2, 13]: 3
- ZEAMX damage score (0-5) [2, 15]: 0
- ZEAMX damage score (0-5) [2, 14]: 4
- AMARE damage score (0-5) [3, 13]: 5
- AMARE damage score (0-5) [3, 15]: 5
- AMARE damage score (0-5) [3, 14]: 5
- ECHCG damage score (0-5) [4, 13]: 5
- ECHCG damage score (0-5) [4, 15]: 1
- ECHCG damage score (0-5) [4, 14]: 5
- LOLPE damage score (0-5) [5, 13]: 5
- LOLPE damage score (0-5) [5, 15]: 0
- LOLPE damage score (0-5) [5, 14]: 5
- ABUTH damage score (0-5) [6, 13]: 5
- ABUTH damage score (0-5) [6, 15]: 1
- ABUTH damage score (0-5) [6, 14]: 3
- SETFA damage score (0-5) [7, 13]: 5
- SEFTA damage score (0-5) ([7]; 62.5 g/Ha): 1
- SEFTA damage score (0-5) ([7]; 250 g/Ha): 5
- ZEAMX damage score (0-5) [8, 13]: 5
- ZEAMX damage score (0-5) [8, 14]: 5
- AMARE damage score (0-5) [9, 13]: 5
- AMARE damage score (0-5) [9, 15]: 5
- AMARE damage score (0-5) [9, 14]: 5
- ECHCG damage score (0-5) [10, 13]: 5
- ECHCG damage score (0-5) [10, 15]: 0
- ECHCG damage score (0-5) [10, 14]: 5
- LOLPE damage score (0-5) [11, 13]: 5
- LOLPE damage score (0-5) [11, 15]: 1
- LOLPE damage score (0-5) [11, 14]: 5
- ABUTH damage score (0-5) [12, 13]: 5
- ABUTH damage score (0-5) [12, 15]: 1
- ABUTH damage score (0-5) [12, 14]: 5
